From ChEMBL document CHEMBL1201862, “PubChem BioAssay data set” (2004)
Active and inactive are the calls of the source.

How the values were obtained:
[1] = biological target: T1, Rac GTPase-activating protein 1 (Homo sapiens, UniProt Q9H0H5); assay: MgcRacGAP GTPase-activating activity inhibitors, confirmation, biochemical, ADP Hunter fluorescence, primary and confirmatory (AID 624330); format: functional
T1 sequence (Q9H0H5 whole entry): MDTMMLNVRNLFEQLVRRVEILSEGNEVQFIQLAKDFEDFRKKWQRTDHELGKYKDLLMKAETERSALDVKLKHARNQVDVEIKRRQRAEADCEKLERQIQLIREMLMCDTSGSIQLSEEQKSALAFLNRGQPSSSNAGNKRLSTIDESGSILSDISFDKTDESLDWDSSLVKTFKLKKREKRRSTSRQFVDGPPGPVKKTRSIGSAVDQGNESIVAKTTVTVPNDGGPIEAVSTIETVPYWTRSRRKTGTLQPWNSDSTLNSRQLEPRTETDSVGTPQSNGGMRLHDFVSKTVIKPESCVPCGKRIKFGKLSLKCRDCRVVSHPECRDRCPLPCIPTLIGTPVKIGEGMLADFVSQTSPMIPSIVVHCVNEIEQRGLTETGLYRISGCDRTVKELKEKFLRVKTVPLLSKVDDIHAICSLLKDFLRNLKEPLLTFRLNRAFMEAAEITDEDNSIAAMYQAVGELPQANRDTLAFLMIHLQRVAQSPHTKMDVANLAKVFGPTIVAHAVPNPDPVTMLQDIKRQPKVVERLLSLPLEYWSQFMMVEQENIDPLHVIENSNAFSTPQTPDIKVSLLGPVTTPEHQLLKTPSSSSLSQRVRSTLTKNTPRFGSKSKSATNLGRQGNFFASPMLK

[2] = HeLa cell cytotoxicity, dose response, cytotoxicity control for MgcRacGAP inhibitor project (AID 624300); format: functional
HEK293 [3] = assay: optical interference in Abeta FP readout, dose response, artefact control for IDE activator project, biochemical, fluorescence polarization (AID 588442); format: functional, cell-based; settings: Homo sapiens
Insulin-degrading enzyme [4] = biological target: T2, Insulin-degrading enzyme (Homo sapiens, UniProt P14735); assay: activators of endogenous IDE in HEK cells, dose response, cell-based, fluorescence polarization (AID 588439); format: functional
T2 sequence (P14735 whole entry): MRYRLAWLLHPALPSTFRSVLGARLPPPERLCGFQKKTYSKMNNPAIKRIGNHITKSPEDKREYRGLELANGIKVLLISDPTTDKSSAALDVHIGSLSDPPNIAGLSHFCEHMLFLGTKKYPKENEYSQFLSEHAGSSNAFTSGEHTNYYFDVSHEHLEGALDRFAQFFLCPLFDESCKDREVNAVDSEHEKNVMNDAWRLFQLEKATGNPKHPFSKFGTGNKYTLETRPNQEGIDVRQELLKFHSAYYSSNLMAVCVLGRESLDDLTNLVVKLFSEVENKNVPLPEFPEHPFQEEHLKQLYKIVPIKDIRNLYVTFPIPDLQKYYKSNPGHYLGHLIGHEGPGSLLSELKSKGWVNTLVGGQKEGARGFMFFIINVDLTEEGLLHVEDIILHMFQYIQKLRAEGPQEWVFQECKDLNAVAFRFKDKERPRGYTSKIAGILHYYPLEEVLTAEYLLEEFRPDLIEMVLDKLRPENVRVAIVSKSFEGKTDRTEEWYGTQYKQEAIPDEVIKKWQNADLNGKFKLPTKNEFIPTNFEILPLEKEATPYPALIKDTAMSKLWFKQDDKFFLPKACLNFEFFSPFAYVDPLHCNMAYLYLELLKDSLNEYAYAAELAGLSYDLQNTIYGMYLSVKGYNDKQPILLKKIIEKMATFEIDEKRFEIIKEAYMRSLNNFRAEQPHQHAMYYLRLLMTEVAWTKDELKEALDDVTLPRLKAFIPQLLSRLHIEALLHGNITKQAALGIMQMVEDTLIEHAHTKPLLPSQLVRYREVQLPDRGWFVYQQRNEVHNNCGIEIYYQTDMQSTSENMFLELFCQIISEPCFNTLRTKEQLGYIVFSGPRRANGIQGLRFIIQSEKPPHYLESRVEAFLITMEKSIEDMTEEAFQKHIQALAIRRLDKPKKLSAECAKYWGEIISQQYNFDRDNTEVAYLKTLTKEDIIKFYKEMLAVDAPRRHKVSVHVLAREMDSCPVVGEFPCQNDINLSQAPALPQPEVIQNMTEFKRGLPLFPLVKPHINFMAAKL

HEK293 [5] = assay: HEK cell cytotoxicity by LDH release, dose response, cytotoxicity control for IDE activator project, fluorescence, HEK cells (AID 588440); format: functional, cell-based; settings: Homo sapiens;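 also: cytotoxicity by LDH release measuring loss of membrane integrity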
Insulin-degrading enzyme [6] = biological target: T2, Insulin-degrading enzyme; assay: activators of recombinant IDE enzyme, dose response, counter-screen for IDE activator project, biochemical, fluorescence polarization (AID 588681)
[7] = biological target: T3, Hepatocyte nuclear factor 4-alpha (Homo sapiens, UniProt P41235); format: functional, cell-based;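 also: biochemical luminescence-based dose-response counterscreen measuring inhibition of HNF4 dimerization, run alongside a screen for blockers of ABHD5–perilipin-5 interaction; split luciferase complementation of HNF4 fusion proteins in cell lysate measuring dimerization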
T3 sequence (P41235 whole entry): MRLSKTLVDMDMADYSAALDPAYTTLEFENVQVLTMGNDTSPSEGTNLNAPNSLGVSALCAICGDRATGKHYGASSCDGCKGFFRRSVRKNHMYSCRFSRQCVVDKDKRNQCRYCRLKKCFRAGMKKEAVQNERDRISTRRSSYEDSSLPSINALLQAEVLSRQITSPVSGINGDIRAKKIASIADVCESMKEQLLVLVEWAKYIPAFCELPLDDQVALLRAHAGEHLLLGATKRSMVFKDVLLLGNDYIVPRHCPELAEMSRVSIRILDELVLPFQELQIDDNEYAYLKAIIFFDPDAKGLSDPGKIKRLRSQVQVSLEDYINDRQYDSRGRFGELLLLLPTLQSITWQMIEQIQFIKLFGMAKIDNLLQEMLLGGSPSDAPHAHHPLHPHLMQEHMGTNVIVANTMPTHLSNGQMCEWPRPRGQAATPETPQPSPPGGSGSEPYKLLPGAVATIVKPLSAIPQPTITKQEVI

[8] = biological target: ATP-dependent molecular chaperone HSP82 (Candida albicans (strain WO-1) (Yeast), UniProt C4YTQ8); assay: loss of DOC-induced GRE-beta-galactosidase reporter signal, dose response, Hsp90 inhibitor project, S. cerevisiae, luminescence (AID 2400); format: functional, cell-based;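 also: beta-galactosidase luminescence from glucocorticoid response element reporter as proxy for Hsp90 function; inhibitor potency where signal loss means Hsp90 inhibition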
Chain of ATP-dependent molecular chaperone HSP82 (C4YTQ8 whole entry): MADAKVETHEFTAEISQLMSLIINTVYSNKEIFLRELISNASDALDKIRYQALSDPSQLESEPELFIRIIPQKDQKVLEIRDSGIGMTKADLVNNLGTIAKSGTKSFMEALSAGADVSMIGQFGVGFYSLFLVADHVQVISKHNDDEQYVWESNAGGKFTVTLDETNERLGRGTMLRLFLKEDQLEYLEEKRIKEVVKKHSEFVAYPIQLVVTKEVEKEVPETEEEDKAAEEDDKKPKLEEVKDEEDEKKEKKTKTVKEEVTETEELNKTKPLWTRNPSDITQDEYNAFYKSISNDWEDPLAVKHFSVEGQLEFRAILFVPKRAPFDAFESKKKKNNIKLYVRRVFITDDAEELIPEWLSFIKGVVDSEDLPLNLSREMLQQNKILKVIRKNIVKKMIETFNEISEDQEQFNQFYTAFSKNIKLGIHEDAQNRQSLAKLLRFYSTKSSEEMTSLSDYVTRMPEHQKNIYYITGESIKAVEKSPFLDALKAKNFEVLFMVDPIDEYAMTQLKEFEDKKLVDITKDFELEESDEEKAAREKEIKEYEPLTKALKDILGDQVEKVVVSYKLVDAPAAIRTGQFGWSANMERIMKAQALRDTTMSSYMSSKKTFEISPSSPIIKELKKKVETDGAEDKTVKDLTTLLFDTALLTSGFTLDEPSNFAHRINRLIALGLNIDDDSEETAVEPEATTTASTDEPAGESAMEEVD

[9] = biological target: T4, Serine/threonine-protein phosphatase (Candida dubliniensis (strain CD36 / CBS 7987 / NCPF 3949 / NRRLY-17841) (Yeast), UniProt B9W6M3); assay: calcineurin pathway inhibitors in yeast reporter, dose response, S. cerevisiae, CDRE-lacZ, luminescence, secondary (AID 2388); format: functional, cell-based;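 also: yeast reporter cells carrying a calcineurin-responsive lacZ construct stimulated with calcium chloride; luminescent beta-galactosidase reporter signal in whole cells rather than isolated phosphatase activity; potency for inhibition where a drop in reporter signal means calcineurin blockade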
T4 sequence (B9W6M3 whole entry): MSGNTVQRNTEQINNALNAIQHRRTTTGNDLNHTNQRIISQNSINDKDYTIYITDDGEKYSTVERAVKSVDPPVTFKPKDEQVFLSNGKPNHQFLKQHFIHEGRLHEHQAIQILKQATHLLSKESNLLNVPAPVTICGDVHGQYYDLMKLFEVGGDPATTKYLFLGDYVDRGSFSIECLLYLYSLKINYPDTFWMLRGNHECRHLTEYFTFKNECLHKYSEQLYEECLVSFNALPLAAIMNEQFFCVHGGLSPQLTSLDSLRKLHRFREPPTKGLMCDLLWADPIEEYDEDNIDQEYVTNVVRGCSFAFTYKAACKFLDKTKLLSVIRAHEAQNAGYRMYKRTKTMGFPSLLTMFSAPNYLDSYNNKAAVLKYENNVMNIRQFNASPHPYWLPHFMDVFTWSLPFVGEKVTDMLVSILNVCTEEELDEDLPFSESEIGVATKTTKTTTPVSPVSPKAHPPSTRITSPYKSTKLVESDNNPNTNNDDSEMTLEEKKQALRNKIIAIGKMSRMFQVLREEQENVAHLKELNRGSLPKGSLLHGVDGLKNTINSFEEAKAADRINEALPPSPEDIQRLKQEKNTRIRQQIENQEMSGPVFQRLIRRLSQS

[10] = NIH-3T3 fibroblast cytotoxicity, dose response, cytotoxicity control, cell-based, fluorescence, Alamar Blue, secondary assay (AID 2327); format: functional;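 also: NIH-3T3 mouse fibroblasts cultured with fluconazole at 8 µg/mL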
[11] = C. albicans growth with fluconazole, confirmation, fluorescence, retest (AID 2467); format: functional, cell-based
[12] = off-target signal loss in HeLa-CEM21 co-culture – HeLa F-luc CTL cells, cherry-picked, counter-screen for HIV-1 Env fusion inhibitor project, dose response (AID 652040); format: functional, cell-based;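 also: potency for signal decrease marking cytotoxic or nonspecific inhibition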
[13] = inhibitors of clade B AD8 Env fusion, dose response, cell-based, cherry-pick (AID 652062); format: functional;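 also: luciferase signal from cell-cell fusion driven by HIV-1 clade B AD8 Env; potency is for inhibitors of fusion seen as a drop in luminescence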
[14] = inhibitors of HIV Env-driven cell fusion, dose response, cherry-pick (AID 652057); format: functional, cell-based
[15] = ZM109 Env clade C HIV-1 fusion inhibitors, dose response, HeLa effector, CEM target cells, luciferase, cherry-pick (AID 652058); format: functional, cell-based
[16] = MC4R antagonists, dose response, counter-screen for LGR2 antagonist project, cell-based, plate reader, cherry pick (AID 743444); format: functional;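 also: transfected HEK 293 cells stimulated with alpha-MSH peptide; potency of inhibitors of the alpha-MSH evoked signal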
[17] = inhibitors of SNCA 5'UTR-driven reporter translation, confirmation, H4 neuroglioma cells, luminescence (AID 1988); format: functional, cell-based
[18] = Luminescence Cell-Based Dose Response HTS to Identify Inhibitors of 5'UTR Stem-Loop Driven Prion Protein mRNA Translation in H4 Neuroglioblastoma Cells. [Related pubchem assays: 1827 (Project Summary), 1813 (Primary HTS)]; format: functional
[19] = HepG2 cell cytotoxicity, dose response, cytotoxicity control, plate reader, cherry-pick, antagonist series (AID 743416); format: functional, cell-based
[20] = LGR2 antagonists, dose response, cell-based, HEK293, CRE-luciferase reporter, cherry pick, set 2 (AID 743343); format: functional;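 also: transfected cells were stimulated with diluted bursicon conditioned medium after compound addition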
[21] = A549 cell cytotoxicity, dose response, cytotoxicity control, plate reader, cherry-pick, antagonist series (AID 743412); format: functional, cell-based

With `COc1cc(-c2nc3ccc(C)cn3c2Nc2ccc3c(c2)OCCO3)ccc1O` the IC50 [1] was 34.2 µM (active) and the CC50 [2] was 100 µM (active).

For `O=C(NS(=O)(=O)Nc1ccccc1)C1=C(N2CCCC2)COC1=O`, the EC50 (HEK293 [3]) was > 55.9 µM (inactive), the EC50 (Insulin-degrading enzyme [4]) was > 54.7 µM (inactive) and the IC50 (HEK293 [5]) was > 89.2 µM (inactive). For the same compound, the EC50 (Insulin-degrading enzyme [6]) was > 54.7 µM (inactive).

For `CC(C)c1ccc(N2C=Nc3ccc(C(C)C)cc3C2)cc1`, the IC50 [7] was 22.5 µM (inactive).

In the case of `CCNc1nc(NC(C)C)nc(NC(C)(C)C)n1`, the EC50 [8] is reported as > 160 µM (inactive), the EC50 [9] is reported as > 180 µM (inactive) and the EC50 [10] is reported as > 150 µM (inconclusive). For the same compound, the EC50 [11] was 0.11 µM (active).

For `Sc1ncc(-c2ccccc2)n1-c1cccc(Cl)c1`, the AC50 [12] was 17.1 µM (active), the AC50 [13] was 21.3 µM (active) and the AC50 [14] was 11.7 µM (active). For the same compound, the AC50 [15] was 16.1 µM (active).

With `Cc1ccc(NC(=O)c2ccc3c(c2)OCCO3)cc1C` the AC50 [16] was 7.61 µM (active), the EC50 [17] was 3.68 µM (active) and the EC50 [18] was 5.06 µM (active). The AC50 [19] was > 52 µM (inactive), the AC50 [20] was 5.65 µM (active) and the AC50 [21] was > 52 µM (inactive).
